Measurements reported in EPA's ToxValDB 9.5.
In brackets after ≈: the same amount, converted by molar mass.

Assays:
Anas platyrhynchos = details: oral, mortality
Apis mellifera = details: acute, mortality
Canidae = details: chronic; duration: 1 years; oral; Dog Other; clinical signs
Ceriodaphnia dubia = details: chronic/long-term; duration: 7 days; reproduction
Lepomis macrochirus = details: acute; duration: 96 hours; mortality
Rattus norvegicus = details: for LD50: acute, oral, mortality
Leuciscus idus = details: acute; duration: 96 hours; mortality
Mus musculus = details: acute; oral; mortality
Macaca mulatta = details: acute; oral; neurology
[1] = acute; oral; unspecified; mortality
Colinus virginianus = details: acute; oral; diet; mortality
Tagia sp. = details: acute; duration: 14 days; mortality

CNC(=O)Oc1cccc2c1OC(C)(C)C2 [Carbofuran]
LD50 (Anas platyrhynchos; acute, unspecified, M): 0.71 mg/kg
LC50 (Anas platyrhynchos; short-term, feed): 1.6 mg/kg-day
LD50 (Apis mellifera; dermal): 0.0357 µg/piece
NOAEL (Canidae): 0.1 mg/kg-day
NOEC (Ceriodaphnia dubia): 0.00016 mg/L
LC50 (Lepomis macrochirus): 0.18 µg/mL (≈ 0.814 µM)
LD50 (Rattus norvegicus): < 5.6 mg/kg
NOAEL (Rattus norvegicus; reproduction developmental, clinical signs): 0.1 mg/kg-day

O=C(O)CCCc1c[nH]c2ccccc12 [Indole-3-butyric acid]
LC50 (Leuciscus idus): 210 µg/mL (≈ 1030 µM)
LD50 (Mus musculus): 1920 mg/kg-day

C/C(=C/C=C/[C@@H](C)C(=O)O)[C@H]1CN[C@H](C(=O)O)[C@H]1CC(=O)O [L-Domoic acid]
LOAEL (Macaca mulatta): 5 mg/kg-day

[S] [Sulfur]
LD50 [1]: > 5000 mg/kg
LD50 (Apis mellifera; oral, unspecified): > 100 µg/piece
LC50 (Colinus virginianus): > 1330 mg/kg-day
LC50 (Oncorhynchus mykiss; acute, duration: 96 hours, mortality): > 0.063 µg/mL
NOEC (Oncorhynchus mykiss; chronic/long-term, duration: 28 days, growth): > 0.063 mg/L
LD50 (Rattus norvegicus): > 1760 mg/kg
NOAEL (Rattus norvegicus; short-term, duration: 28 days, no effects): > 1000 mg/kg-day
NOAEL (Rattus norvegicus; subchronic, duration: 90 days, no effects): 1000 mg/kg-day
LC50 (Tagia sp.): > 1580 mg/kg
